This assay concerns the target T1, nitrogen monoxide synthase (NO synthase) (Rattus norvegicus, UniProt P29476).
T1 construct: the supernatant was then decanted off and frozen in portions; from tissue; host or cells: rat cerebellum (homogenate, 20,000 g supernatant)
In words: HTS-NOS assay (nitrogen monoxide synthase assay). Format: biochemical. The note with it: compound at 10 μM; enzyme preparation from rat cerebella; [3H]-arginine substrate. The source says:
This assay makes it possible to determine the percentage inhibition of NO synthase by a compound of the general formula I used according to the invention by measuring NOS activity on exposure to the compound. NO synthase is here mixed under suitable conditions together with radioactively labelled arginine and the particular compound of the general formula I. After termination of the NO formation reaction at a predetermined time, the quantity of unconverted arginine is directly or indirectly determined. […] This assay may be carried out at follows: • (a) Incubation of the NO synthase with labelled arginine as the substrate in a reaction vessel, • (b) Separation of the labelled arginine from the labelled citrulline optionally arising as a product of the enzymatic reaction at a time at which the concentration of citrulline is rising, • (c) Measurement of the quantity of arginine separated in each case.
Separation is performed by means of a filter plate membrane.
Radioactive arginine is used as the substrate in this HTS-NOS assay. Depending on the type of microtitre plate (MTP), the assay volume may be selected in the range between 25 μl and 250 μl. Depending on the enzyme source used, cofactors and coenzymes are added. The batches are incubated in this microtitre plate (assay MTP) according to step (a) at room temperature and, depending on the enzyme activity used (units), lasts between 5 and 60 minutes. On completion of incubation (step (a)), the plate is placed in a cell harvester, which is equipped with an MTP which has a cation exchange membrane as a filter bottom (filter MTP). All the batches from the assay MTP are transferred into this filter MTP and suction filtered through a cation exchange filter plate, a paper filter loaded with phosphate groups. The filter MTP is then washed with buffer or water. This procedure binds the remaining substrate arginine onto the cation exchanger, while the enzymatically formed radioactive citrulline is quantitatively eluted. Once the filter MTP has been dried and scintillation liquid added, the bound arginine can be counted in the scintillation counter. Low radioactivity indicates an uninhibited NOS reaction. An inhibited enzyme reaction means that the radioactive arginine has not been converted. This means that there is a high level of radioactivity on the filter.
• Arginine, L-[2,3,4-^3H]-monohydrochloride; item no. […] The pH value of the buffer was adjusted to 7.4 at 25° C. • Washing medium: H2O Enzyme Preparation
Rat cerebella were used as the starting tissue. The animals were stunned and killed, the brain tissue, the cerebellum, was dissected out, 1 ml of enzyme preparation buffer (4° C.) was added per cerebellum, and the tissue was disrupted for 1 min at 6000 rpm in a Polytron homogeniser. The mixture was then centrifuged at 4° C. for 15 min at 20,000 g, and the supernatant was then decanted off and frozen in portions at −80° C. (discarding the precipitate).
96-Well MTPs with a well capacity of ≦250 μl were used Pipetting sequence: see table 1:
Once the pipetting operation was complete, a lid was laid on top of this MTP (assay MTP). Incubation at 25° C. (room temperature (RT)) for 5-60 min, depending on the quantity and activity of the enzyme used.
The contents of the assay MTP were then transferred with the assistance of a 96 well cell harvester into a 96 well cation exchange MTP (filter MTP) and suction filtered. A single washing with […] of H2O (from a trough) was then performed.
The plate was then dried for 1 h at 60° C. in a drying cabinet. The bottom of the filter MTP was then carefully sealed from beneath with a “back seal”. 35 μl of scintillating material were then pipetted into each well. The top of the plate was also sealed with a “top seal”. After 1 hour's waiting time, the plate was assessed on the β-counter.

For orientation: inhibition means the change of the read-out against control, counted positive when it falls. A higher inhibition goes with a response far below the control. `Cc1ccnc(NC2CC(C)(c3ccc(Br)cc3)OC2=O)c1` (stereo not drawn) [Example 60, 5-(4-Bromo-phenyl)-5-methyl-3-(4-methyl-pyridin-2-ylamino)-dihydro-furan-2-one] yielded an inhibition at 10 µM of 59%.
`COc1ccc(OC)c(C2(C)CC(Nc3n[nH]cc3C#N)C(=O)O2)c1` (stereo not drawn) [Example 64, 3-[5-(2,5-Dimethoxy-phenyl)-5-methyl-2-oxo-tetrahydro-furan-3-ylamino]-1H-pyrazole-4-carbonitrile] yielded an inhibition at 10 µM of 42%.
`CC1(c2ccc3c(c2)OCO3)CC(Nc2ncccc2[N+](=O)[O-])C(=O)O1` (stereo not drawn) [Example 34, 5-Benzo[1,3]dioxol-5-yl-5-methyl-3-(3-nitro-pyridin-2-ylamino)-dihydro-furan-2-one]: the inhibition at 10 µM was determined as 40%.
For the compound “3-(5-Bromo-6-methyl-pyridin-2-ylamino)-5-methyl-5-naphthalen-l-yl-dihydro-furan-2-one [Example 53]”, the “NOS (% inhibition)” value was 40%.
In turn, `Cc1cc(C)nc(NC2CC(C)(c3ccc(C4CCCCC4)cc3)OC2=O)c1` (stereo not drawn) [Example 4, 5-(4-Cyclohexyl-phenyl)-3-(4,6-dimethyl-pyridin-2-ylamino)-5-methyl-dihydro-furan-2-one] returned an inhibition at 10 µM of 45%.
In the case of `COc1cc(OC)cc(C2(C)CC(Nc3ncc(C(F)(F)F)cc3Cl)C(=O)O2)c1` (stereo not drawn) [Example 68, 3-(3-Chloro-5-trifluoromethyl-pyridin-2-ylamino)-5-(3,5-dimethoxy-phenyl)-5-methyl-dihydro-furan-2-one], the inhibition at 10 µM came out at 60%.
As for `CC1(c2ccc3c(c2)CCCC3)CC(Nc2ncc(Br)cc2[N+](=O)[O-])C(=O)O1` (stereo not drawn) [Example 41, 3-(5-Bromo-3-nitro-pyridin-2-ylamino)-5-methyl-5-(5,6,7,8-tetrahydro-naphthalen-2-yl)-dihydro-furan-2-one], the inhibition at 10 µM was 53%.
Turning to `COc1cc(OC)cc(C2(C)CC(Nc3n[nH]cc3Br)C(=O)O2)c1` (stereo not drawn) [Example 62, 3-(4-Bromo-1H-pyrazol-3-ylamino)-5-(3,5-dimethoxy-phenyl)-5-methyl-dihydro-furan-2-one], testing at 10 µM gave an inhibition of 40%.
For `Cc1ccnc(NC2CC(C)(c3ccc4c(c3)CCCC4)OC2=O)c1` (stereo not drawn) [Example 38, 5-Methyl-3-(4-methyl-pyridin-2-ylamino)-5-(5,6,7,8-tetrahydro-naphthalen-2-yl)-dihydro-furan-2-one], 10 µM produced 55% inhibition.
Turning to `Cc1ccnc(NC2CC(C)(c3ccc(Oc4ccccc4)cc3)OC2=O)c1` (stereo not drawn) [Example 23, 5-Methyl-3-(4-methyl-pyridin-2-ylamino)-5-(4-phenoxy-phenyl)-dihydro-furan-2-one], the inhibition at 10 µM was 79%.
In turn, `Cc1ccc(NC2CC(C)(c3ccc4c(c3)OCO4)OC2=O)nc1` (stereo not drawn) [Example 39, 5-Benzo[1,3]dioxol-5-yl-5-methyl-3-(5-methyl-pyridin-2-ylamino)-dihydro-furan-2-one] had an inhibition at 10 µM of 44%.
With `Cc1ccnc(NC2CC(C)(c3cc4ccccc4o3)OC2=O)c1` (stereo not drawn) [Example 31, 5-Benzofuran-2-yl-5-methyl-3-(4-methyl-pyridin-2-ylamino)-dihydro-furan-2-one], the inhibition at 10 µM was 44%.
`Cc1ccc(C2(C)CC(Nc3cc(C)cc(C)n3)C(=O)O2)cc1` (stereo not drawn) [Example 10, 3-(4,6-Dimethyl-pyridin-2-ylamino)-5-methyl-5-p-tolyl-dihydro-furan-2-one] yielded an inhibition at 10 µM of 61%.
`Cc1nc(NC2CC(C)(c3ccc(Oc4ccccc4)cc3)OC2=O)ccc1Br` (stereo not drawn) [Example 17, 3-(5-Bromo-6-methyl-pyridin-2-ylamino)-5-methyl-5-(4-phenoxy-phenyl)-dihydro-furan-2-one] returned an inhibition at 10 µM of 43%.
Turning to `CC(C)(C)c1ccc(C2(C)CC(Nc3ncccc3OCc3ccccc3)C(=O)O2)cc1` (stereo not drawn) [Example 20, 3-(3-Benzyloxy-pyridin-2-ylamino)-5-(4-tert-butyl-phenyl)-5-methyl-dihydro-furan-2-one], the inhibition at 10 µM was determined as 54%.
With `Cc1cc(C)nc(NC2CC(C)(c3ccc(I)cc3)OC2=O)c1` (stereo not drawn) [Example 57, 3-(4,6-Dimethyl-pyridin-2-ylamino)-5-(4-iodo-phenyl)-5-methyl-dihydro-furan-2-one], the inhibition at 10 µM worked out at 72%.
As for `Cc1ccnc(NC2CC(C)(c3ccc(C4CCCCC4)cc3)OC2=O)c1` (stereo not drawn) [Example 8, 5-(4-Cyclohexyl-phenyl)-5-methyl-3-(4-methyl-pyridin-2-ylamino)-dihydro-furan-2-one], the inhibition at 10 µM is 41%.
Consider `CCOc1ccc(C2(C)CC(Nc3cc(C)cc(C)n3)C(=O)O2)cc1` (stereo not drawn) [Example 12, 3-(4,6-Dimethyl-pyridin-2-ylamino)-5-(4-ethoxy-phenyl)-5-methyl-dihydro-furan-2-one], for which at 10 µM the inhibition was 59%.

(Values after patent US6943181B2, “Use of substituted gamma-lactone compounds as pharmaceutical preparations” (Grunenthal GmbH, priority 2001, dated 2005).)
